Reference: patent US10052297B2, “L-serine to be used as a drug for preventing and/or treating an inflammatory response of the skin” (PIERRE FABRE DERMO-COSMETIQUE, priority 2009, dated 2018)
Marks after values point to notes of the source that are not given here. One block for each molecule: values may come before it.

Legend:
IL-8 secretion = assay: Inhibition of IL-8 secretion stimulated by trypsin in HaCaT keratinocytes (sandwich ELISA); format: cell-based; conditions: Homo sapiens, 10 nM trypsin 24 h, n=2 experiments
Procedure: The test performed permitted to evaluate the anti-inflammatory activity of L-serine in terms of IL-8 secretion, stimulated by trypsin, on human keratinocytes from a cell line (HaCaT). Principle of the IL-8 Assay: Sandwich ELISA for Quantification of IL-8 Secreted in Culture Supernatants. IL-8 is captured by a monoclonal antibody bound to microplate wells. A second anti-IL-8 antibody is added. This antibody is biotinylated, which enabled the binding of streptavidin coupled with peroxidase activity. Adding the peroxidase substrate makes it possible to quantify the IL-8 concentration in each well by measuring absorbance at 450 nm. The HaCaT human keratinocyte cell line was used. A 96-well microplate for cell culture and a plate reader with injectors, Mithras LB940TM (Berthold Technologies®), were used. 10 nM trypsin was used as stimulation agent. Reagents from the Human CXCL8/IL8 DuoSet R&D System kit (ref. DY208(E)) were used. L-serine, solubilized at 475.8 mM in distilled water, was evaluated at concentrations of 3 μM, 10 μM, 30 μM, 100 μM, 300 μM and 1 mM. L-serine is incubated for 1 hour at 37° C. (HBSS buffer). The stimulation agent (trypsin […]) is then added and incubated for 24 hours at 37° C. The culture supernatants are recovered, centrifuged at +4° C. and then stored at -20° C. The IL-8 concentrations of the samples are calculated from a standard curve of the following equation: OD=(Bmax*[IL-8])/(Kd+[IL-8]) Next, the percentages of inhibition of IL-8 secretion are calculated according to the following formula: […]

PAR2 = molecular target: T1, PAR2 (Homo sapiens, UniProt P55085); assay: Inhibition of trypsin-induced calcium flow (PAR2 activation) in HaCaT keratinocytes, Fluo-4/AM fluorescence; format: cell-based; conditions: HaCaT cells, 10 nM trypsin stimulation; for inhibition at 3 µM / inhibition at 10 µM / inhibition at 30 µM / inhibition at 100 µM: 30 min incubation, read-out: Anti-PAR2 activity (percentage of inhibition); for Inhibition of PAR2 activation (result in words): 3-100 μM
T1 construct: HaCaT cell line keratinocyte models were used; endogenous in cells; host or cells: HaCaT keratinocytes
T1 sequence (P55085 26-397): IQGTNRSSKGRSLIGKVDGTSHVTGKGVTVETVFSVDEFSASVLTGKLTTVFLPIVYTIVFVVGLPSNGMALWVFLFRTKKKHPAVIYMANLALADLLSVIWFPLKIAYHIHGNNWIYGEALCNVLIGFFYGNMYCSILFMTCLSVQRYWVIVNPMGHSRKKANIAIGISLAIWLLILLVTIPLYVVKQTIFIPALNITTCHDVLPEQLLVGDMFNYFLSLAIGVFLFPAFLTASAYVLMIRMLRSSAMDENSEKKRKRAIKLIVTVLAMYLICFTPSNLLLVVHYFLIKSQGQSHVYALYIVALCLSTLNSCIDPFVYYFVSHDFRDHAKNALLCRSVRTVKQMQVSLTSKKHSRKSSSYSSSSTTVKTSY
Procedure: HaCaT cell line keratinocyte models were used. L-serine and L-asparagine were purchased from EVONIK, L-arginine was purchased from AMINO and L-valine was purchased from AJINOMOTO.
A fluorescent probe (Fluo-4/AM at a concentration of 2 μM) is incorporated for 30 minutes in cells inoculated in 96-well plates and the active agent to be tested is incubated for 30 minutes. Only the deesterified form of the probe bound to calcium ions is excitable under 485 nm fluorescence and emits at 535 nm. The incubation buffer used is HBSS buffer supplemented with HEPES (20 mM) and with water-soluble probenecid (2.5 mM).
The cells were stimulated with 10 nM trypsin.
The reference molecule used is a STI molecule (soybean trypsin inhibitor) at a concentration of 1 μM.
L-serine and L-asparagine, solubilized at 50 mg/ml in distilled water (475.8 mM for L-serine and 378.4 mM for L-asparagine) were evaluated at concentrations of 3 μM, 10 μM, 30 μM and 100 μM.
L-arginine was solubilized at 100 mM in distilled water.
L-valine was solubilized at 200 mM in distilled water.
Calcium flow, which represents PAR2 activation, is measured by fluorescence, well by well in real time according to kinetics before and after the injection of trypsin. The percentage of inhibition of PAR2 activation corresponds to the percentage of inhibition of calcium flow.

Molecule: NC(CO)C(=O)O [L-serine, 2-amino-3-hydroxypropanoic acid]
inhibition at 10 µM (IL-8 secretion; 10 μM): 47%
inhibition at 30 µM (IL-8 secretion; 30 μM): 50%
inhibition at 100 µM (IL-8 secretion; 100 μM): 66%
inhibition at 1000 µM (IL-8 secretion; 1 mM): 74%
inhibition at 3 µM (PAR2): 3%
inhibition at 10 µM (PAR2): 13%
inhibition at 30 µM (PAR2): 20%
inhibition at 100 µM (PAR2): 33%
Inhibition of PAR2 activation (result in words) (PAR2): inhibit PAR2 activation in a dose-dependent manner

Molecule: NC(=O)CC(N)C(=O)O [L-asparagine, asparagine-amino-succinic acid]
inhibition at 3 µM (PAR2): 23%
inhibition at 10 µM (PAR2): 23%
inhibition at 30 µM (PAR2): 22%
inhibition at 100 µM (PAR2): 31%
Inhibition of PAR2 activation (result in words) (PAR2): inhibit PAR2 activation, but not in a dose-dependent manner

Molecule: N=C(N)NCCC[C@H](N)C(=O)O [L-arginine, reference compound]
inhibition at 3 µM (PAR2): -17%
inhibition at 10 µM (PAR2): 12%
inhibition at 30 µM (PAR2): -11%
inhibition at 100 µM (PAR2): 1%
Inhibition of PAR2 activation (result in words) (PAR2): does not significantly inhibit PAR2 activation

Continued, values first:

inhibition at 3 µM (PAR2): 6%
inhibition at 10 µM (PAR2): 26%
inhibition at 30 µM (PAR2): 20%
inhibition at 100 µM (PAR2): 34%
Inhibition of PAR2 activation (result in words) (PAR2): inhibit PAR2 activation
Molecule: CC(C)[C@H](N)C(=O)O [L-valine]

Anti-PAR2 activity (percentage of inhibition) (PAR2; reference at 1 μM): 106-109%***
B1: STI: reference molecule, STI molecule (soybean trypsin inhibitor) at a concentration of 1 μM (protein, UniProt P01070 25-205, looked up)
Trypsin inhibitor A: DFVLDNEGNPLENGGTYYILSDITAFGGIRAAPTGNERCPLTVVQSRNELDKGIGTIISSPYRIRFIAEGHPLSLKFDSFAVIMLCVGIPTEWSVVEDLPEGPAVKIGENKDAMDGWFRLERVSDDEFNNYKLVFCPQQAEDDKCGDIGISIDHDDGTRRLVVSKNKPLVVQFQKLDKESL
